Data from patent US7652155B2, “Diamine derivative, production process therefor and antioxidant” (Nippon Soda Co., Ltd., priority 2003, dated 2010).
Counter-ions that a name gives are not always drawn. Like-named read-outs stand apart in the source and are kept apart here.

What was measured:
[1] = test system: lipid peroxide in rat brain homogenate; test: Antioxidative action on lipids in vitro (lipid peroxide activity in rat brain homogenate, thiobarbituric acid method); assay type: biochemical; details: 500 μM cysteine, 5 μM ferrous sulfate, 100 mM KCl, 30 minutes at 37° C., malondialdehyde, read-out: 50% inhibitory concentration of anti-lipid peroxide action in vitro (IC50)
Method: (§1) The antioxidative action on lipids in vitro of the compounds according to the present invention was evaluated in accordance with the method of Malvy et al. (Malvy C. et al.,) described in Biochemical and Biophysical Research Communications, 1980, vol. 95, pp. 734 to 737,) by measuring the lipid peroxide activity in a rat brain homogenate. Namely, the rat brain was removed followed by the addition of five volumes of an aqueous solution of phosphate buffered saline (pH 7.4) (hereinafter, abbreviated as PBS) to the brain while cooling with water, homogenizing with a Teflon homogenizer, and centrifuging for 20 minutes at 10,000 g to collect the supernatant as a brain homogenate. 500 μM cysteine, 5 μM ferrous sulfate, and 100 mM KCl were added to the resulting brain homogenate followed by incubating for 30 minutes at 37° C. and measuring the malondialdehyde that formed due to decomposition of lipid peroxide using the thiobarbituric acid method. The 50% inhibitory concentrations (hereinafter, abbreviated as IC50) of the compounds according to the present invention were then determined from the measured values.

[2] = test system: lipid peroxide in homogenates of brain, heart and kidneys; test: Tissue migration: antioxidative action on lipids ex vivo after intraperitoneal administration; assay type: in vivo; details: Rattus norvegicus, ip, 0.5 h, male SD rats, 100 mg/kg intraperitoneally, 30 minutes after administration
Method: as §1
Tissue migration of the compounds according to the present invention was evaluated by measuring the antioxidative action on lipids ex vivo. A test compound dissolved or suspended in an aqueous physiological saline solution or aqueous physiological saline solution containing 1% polyethylene hardened castor oil (Nikko Chemicals: Nikkol HCO-60) was intraperitoneally administered to male SD rats (age: 6 weeks) (purchased from Japan SLC) in groups of 3 animals each at a dose of 100 mg/kg. The animals were sacrificed by exsanguination by severing the carotid artery 30 minutes after administration followed by removing the brain, heart and kidneys. The lipid peroxide activity of homogenates of each tissue was measured using the method described in Example 4. The inhibition rates of the test compounds in each tissue were determined from the amounts of lipid peroxide formed in a control group (physiological saline dose group) and test compound groups.

[3] = test system: mice administered ferrous chloride into the spinal subarachnoid cavity; test: Antioxidative action in vivo: abnormal behavior and mortality after ferrous chloride into the spinal subarachnoid cavity; design: species or system mouse; details: male Slc:ICR mice, 30 minutes before ferrous chloride, score after 60 minutes
Method: The antioxidative action in vivo of the compounds according to the present invention was evaluated according to the method described in the Journal of Medical Chemistry (J. Med. Chem., 1997, vol. 40, pp. 559 to 573) based on the inhibitory effects on abnormal behavior and mortality rate following administration of ferrous chloride into the spinal subarachnoid cavity of mice. Male Slc:ICR mice (age: 5 weeks) (purchased from Japan SLC) were used in groups of 3 to 7 animals each, and were administered 5 μl of aqueous physiological saline solution containing 50 mM ferrous chloride into the spinal column between the 5th and 6th lumbar vertebra. […] The test compounds were dissolved or suspended in an aqueous physiological saline solution or an aqueous physiological saline solution containing 1% polyethylene hardened castor oil (manufactured by Nikko Chemicals CO., LTD. under the name of NIKKOL HCO-60), and administered intraperitoneally or orally 30 minutes before the administration of ferrous chloride. The 50% inhibitory dose (hereinafter, abbreviated as ID50) of each test compound was determined from the score of a control group (physiological saline treated group) and the score of each test compound treated group.

5-lipoxygenase (5-LO) = target: T1, 5-lipoxygenase (5-LO) (Homo sapiens, UniProt P09917); test: 5-LO inhibitory activity (leucotriene B4 formation in human peripheral blood mononuclear cells, A23187); assay type: cell-based; details: 30 μM A23187, leucotriene B4, read-out: Lipoxygenase inhibitory action 50% inhibitory concentration (IC50), 5-LO
T1 construct: human peripheral blood mononuclear cells; endogenous in cells; host or cells: human peripheral blood mononuclear cells
T1 sequence (P09917 1-674): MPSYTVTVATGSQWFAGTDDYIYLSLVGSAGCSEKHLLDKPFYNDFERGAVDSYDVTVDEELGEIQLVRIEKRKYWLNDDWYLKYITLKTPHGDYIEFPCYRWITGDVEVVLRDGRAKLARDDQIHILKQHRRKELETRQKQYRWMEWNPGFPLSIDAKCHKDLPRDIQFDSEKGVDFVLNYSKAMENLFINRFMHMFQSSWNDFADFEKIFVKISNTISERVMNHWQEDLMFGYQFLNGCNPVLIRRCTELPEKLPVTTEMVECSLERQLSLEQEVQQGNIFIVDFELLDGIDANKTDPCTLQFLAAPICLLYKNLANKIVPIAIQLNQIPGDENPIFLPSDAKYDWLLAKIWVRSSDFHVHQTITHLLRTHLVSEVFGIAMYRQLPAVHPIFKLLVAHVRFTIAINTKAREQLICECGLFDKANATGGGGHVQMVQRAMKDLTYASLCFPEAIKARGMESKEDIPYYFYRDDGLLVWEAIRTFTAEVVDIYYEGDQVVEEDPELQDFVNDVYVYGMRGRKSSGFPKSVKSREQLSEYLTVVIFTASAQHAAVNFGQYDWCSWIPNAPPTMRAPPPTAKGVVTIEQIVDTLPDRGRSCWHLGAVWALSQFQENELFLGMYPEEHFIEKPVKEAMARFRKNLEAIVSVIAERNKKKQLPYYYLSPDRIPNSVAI
Method: 5-LO inhibitory activity was measured using a variation of the method of Carter et al. (Carter G. W. et al., J. Pharmacol. Exp. Ther., 256, 929 to 937, 1991). Namely, after pre-incubating (37° C., 15 minutes) in Hank's solution human peripheral blood mononuclear cells and a test compound dissolved in DMSO (final concentration: 1%), 30 μM A23187 was added and the resulting solution was additionally incubated (37° C., 30 minutes). The resulting leucotriene B4 that formed was quantified by enzyme immunoassay, and the 50% formation inhibitory concentration (μM) of the test compound with respect to 5-LO was calculated from that value.

[4] = Acute oral toxicity in mice; details: mouse, in vivo; male mice, single oral dose, observed for 7 days
From the text: A single dose of the test compounds according to the present invention was orally administered to male mice followed by observing for 7 days to determine the mortality rate. The compound indicated below was used for Control Drug 3.

[5] = test system: lipid peroxides in retina homogenate; test: Retina migration: formation of lipid peroxides in retina ex vivo after oral administration; design: species or system rat; details: male SD rats, retinas removed 30 minutes later, auto-oxidized 1 hour at 37° C.
Method: The retina migration of the compounds according to the present invention was evaluated. The test compounds dissolved or suspended in 0.1 N aqueous hydrochloric acid solution or 1% polyethylene hardened castor oil (Nikkol HCO-60) solution were orally administered to male SD rats (age: 6 weeks) in groups of three animals each followed by removing both eyes 30 minutes later and separating the retinas while cooling with ice. The retinas were homogenized with a Polytron Microhomogenizer (NS-310E: manufactured by Niti-On Medical and Physical Instruments) in 0.1 M Tris-HCl buffer (pH 7.4) while cooling with ice to prepare 5% homogenates. The homogenates were then auto-oxidized for 1 hour at 37° C., and the amounts of lipid peroxide that formed were quantified using the thiobarbituric acid method (Masugi, et al., Vitamin, 51, 21 to 29, 1977).

[6] = test system: 66 kDa protein in rat retina; test: Inhibitory action on increases in 66 kDa protein in UV-A irradiated rat retina; assay type: in vivo; details: male Wistar rats, 100 mg/kg p.o. 30 minutes before UV-A (12 mW/cm^2, 30 minutes); retinas 48 hours after irradiation; N = 3
Method: The inhibitory action of the compound according to the present invention on increases in 66 kDa protein in rat retina irradiated with UV light was evaluated. The test compound was dissolved or suspended in 0.1 N aqueous hydrochloric acid solution or 1% polyethylene hardened castor oil (Nikkol HCO-60) and orally administered to male Wistar rats (age: 7-9 weeks) followed 30 minutes later by irradiation of the right eye with UV-A (12 mW/cm^2) for 30 minutes using a UV spot light source. In addition, the left eye was not irradiated and used as a control. The rats were housed in an environment blocked from interior light both during UV-A irradiation and for 2 hours before and after irradiation. The retinas were separated 48 hours after irradiation and 5% homogenates were prepared using the same method as described in Example 4. Changes in retina protein were determined by SDS-polyacrylamide gel electrophoresis in accordance with the method of Lammli (Nature, […], 680 to 685, 1970). […] Subsequently, the gel was decolored with a mixture of ethanol, acetic acid, and water (25:8:65) and the 66 kDa protein following electrophoresis was analyzed by densitrography. The amount of protein in the samples was determined using the Lowry method.

15-lipoxygenase (15-LO) = target: T2, 15-lipoxygenase (15-LO) (Oryctolagus cuniculus, UniProt P12530); test: 15-LO inhibitory activity (15-LO from rabbit reticulocytes, linoleic acid); assay type: biochemical; details: 256 μM linoleic acid, 4° C., read-out: Lipoxygenase inhibitory action 50% inhibitory concentration (IC50), 15-LO
T2 construct: 15-LO obtained from rabbit reticulocytes; from tissue; host or cells: rabbit reticulocytes
T2 sequence (P12530 1-663): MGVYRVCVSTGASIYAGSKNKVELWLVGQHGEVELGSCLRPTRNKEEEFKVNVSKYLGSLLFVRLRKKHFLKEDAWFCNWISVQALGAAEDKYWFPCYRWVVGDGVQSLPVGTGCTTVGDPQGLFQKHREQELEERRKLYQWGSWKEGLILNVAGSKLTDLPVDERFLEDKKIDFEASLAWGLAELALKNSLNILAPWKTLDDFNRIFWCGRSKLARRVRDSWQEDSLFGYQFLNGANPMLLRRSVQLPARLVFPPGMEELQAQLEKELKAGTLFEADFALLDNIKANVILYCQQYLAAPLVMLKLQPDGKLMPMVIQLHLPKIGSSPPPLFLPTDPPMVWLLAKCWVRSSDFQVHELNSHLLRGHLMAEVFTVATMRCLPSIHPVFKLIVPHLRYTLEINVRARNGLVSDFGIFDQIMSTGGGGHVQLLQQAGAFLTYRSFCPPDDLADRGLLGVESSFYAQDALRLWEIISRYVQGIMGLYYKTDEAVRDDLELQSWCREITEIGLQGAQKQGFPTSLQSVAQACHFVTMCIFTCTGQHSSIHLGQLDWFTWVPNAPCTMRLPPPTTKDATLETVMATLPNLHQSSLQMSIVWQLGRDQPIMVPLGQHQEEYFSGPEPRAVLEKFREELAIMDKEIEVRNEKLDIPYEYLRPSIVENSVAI
Method: 15-LO inhibitory activity was measured using a variation of the method of Auerbach et al. (Auerbach B. J. et al., Anal. Biochem., 201, 375 to 380, 1992). Namely, after pre-incubating (4° C., 15 minutes) in phosphate buffer (pH 7.4) 15-LO obtained from rabbit reticulocytes and a test compound dissolved in DMSO (final concentration: 1%), 256 μM linoleic acid was added and the resulting solution was additionally incubated (4° C., 10 minutes). The resulting 15-HETE that formed was quantified by spectrophotometry (OD660 nm), and the 50% formation inhibitory concentration (μM) of the test compound with respect to 15-LO was calculated from that value.

[7] = brain homogenate, read-out: Inhibition rate of ex vivo anti-lipid peroxide action, Brain
[8] = heart homogenate, read-out: Inhibition rate of ex vivo anti-lipid peroxide action, Heart
[9] = kidney homogenate, read-out: Inhibition rate of ex vivo anti-lipid peroxide action, Kidney

Structure (SMILES)	IC50 [1] [nM]	inhibition at 100 mg/kg [2, 7] [%]	inhibition at 100 mg/kg [2, 8] [%]	inhibition at 100 mg/kg [2, 9] [%]	Antioxidative action in vivo 50% inhibitory dose (ID50), Intraperitoneal administration [3] [mg/kg]	Antioxidative action in vivo 50% inhibitory dose (ID50), Oral administration [3] [mg/kg]	IC50 (5-lipoxygenase (5-LO)) [nM]	LD50 at 7 days [4] [mg/kg]	Inhibitory effect on formation of lipid peroxides in retina ex vivo 30% inhibitory concentration (ID30, oral administration) [5] [mg/kg]	Ratio of 66 kDa protein in UV-irradiated rat retina (right eye: irradiated/left eye: non-irradiated) [6]	IC50 (15-lipoxygenase (15-LO)) [nM]
Cc1c(C)c2c(c(N)c1N)CC(C)(C)O2 [Control drug 1, reference compound]	1400	94	84	87	>30	>30					
Cc1c(C)c2c(c(C)c1N)CC(C)(CN1CCC(c3ccccc3)CC1)O2 (centres unmarked) [Control Drug 2, reference compound]							> 10000	< 300			
Cc1c(C)c2c(c(CN)c1N)CC(C)(C)O2 [Compound No. 1]		93	81	83	1.8	6	> 10000	> 1000	16	1.45	3740
Cc1c(C)c2c(c(CN)c1N)CCC(C)(C)O2 [Compound No. 2, 2,2,7,8-tetramethyl-5-aminomethyl-6-aminochroman•-dihydrochloride]	340	98	96	97	2.6	12		> 1000	6.9		
